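Exposure lasted 48 hours, with cells grown in 96-well plates and compounds tested at five concentrations. Abbreviation: GI50, concentration required for 50% inhibition of growth.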 The source made the active and inactive calls. Cut-off read from the data, not from the text of the source: active = GI50 up to about 1.1 µM and inactive = higher.
How the values were obtained:
Experiment in all cases: NCI tumour cell line growth inhibition, 48 h
MCF7 = system: MCF7
OVCAR-4 = system: OVCAR-4
SW-620 = system: SW-620
PC-3 = system: PC-3
SF-268 = system: SF-268
RPMI-8226 = system: RPMI-8226
EKVX = system: EKVX
SF-539 = system: SF-539
A498 = system: A498
OVCAR-3 = system: OVCAR-3
SN12C = system: SN12C
DU-145 = system: DU-145
RXF 393 = system: RXF 393
MOLT-4 = system: MOLT-4
OVCAR-8 = system: OVCAR-8
SK-OV-3 = system: SK-OV-3
KM12 = system: KM12
IGROV-1 = system: IGROV-1
COLO 205 = system: COLO 205
CAKI-1 = system: CAKI-1

Compound	GI50 (MCF7)	GI50 (OVCAR-4)	GI50 (SW-620)	GI50 (PC-3)	GI50 (SF-268)	GI50 (RPMI-8226)	GI50 (EKVX)	GI50 (SF-539)	GI50 (A498)	GI50 (OVCAR-3)	GI50 (SN12C)	GI50 (DU-145)	GI50 (RXF 393)	GI50 (MOLT-4)	GI50 (OVCAR-8)	GI50 (SK-OV-3)	GI50 (KM12)	GI50 (IGROV-1)	GI50 (COLO 205)	GI50 (CAKI-1)
Cc1c2ccccc2c(CSC(=N)N)c2ccccc12	0.104 µM (active)	0.174 µM (active)	0.121 µM (active)	0.23 µM (active)	0.0738 µM (active)	0.0841 µM (active)	0.304 µM (active)	0.118 µM (active)	0.19 µM (active)	0.264 µM (active)	0.152 µM (active)	0.084 µM (active)	0.0715 µM (active)	0.0284 µM (active)	0.199 µM (active)	0.344 µM (active)	0.218 µM (active)	0.312 µM (active)	0.14 µM (active)	
NC(Cc1ccccc1)C(=O)N[C@H]1c2ccsc2/C(=N/O)[C@H]1O (some centres not stated)	> 100 µM (inactive)	> 100 µM (inactive)	> 100 µM (inactive)	> 100 µM (inactive)			> 100 µM (inactive)	> 100 µM (inactive)	> 100 µM (inactive)	> 100 µM (inactive)	> 100 µM (inactive)	> 100 µM (inactive)	> 100 µM (inactive)	> 10 µM (inactive)	> 100 µM (inactive)	> 100 µM (inactive)		> 100 µM (inactive)	> 100 µM (inactive)	> 100 µM (inactive)
COCCNC1CCC2(SCCS2)c2[nH]c3ccccc3c21 (configuration not stated)	16.8 µM (inactive)	97.1 µM (inactive)	68.7 µM (inactive)	28.6 µM (inactive)	> 100 µM (inactive)	15 µM (inactive)	> 100 µM (inactive)	23.6 µM (inactive)	25.5 µM (inactive)	27.2 µM (inactive)	28.4 µM (inactive)	39.3 µM (inactive)	14 µM (inactive)	29.2 µM (inactive)	46.1 µM (inactive)		17.8 µM (inactive)	> 100 µM (inactive)	22.2 µM (inactive)	39.1 µM (inactive)
Nc1nc(-c2ccccc2)nc2oc(-c3cccs3)nc12	> 100 µM (inactive)		> 100 µM (inactive)	> 100 µM (inactive)	> 100 µM (inactive)	> 100 µM (inactive)	> 100 µM (inactive)	> 100 µM (inactive)	> 100 µM (inactive)	> 100 µM (inactive)	> 100 µM (inactive)	> 100 µM (inactive)	> 100 µM (inactive)	> 100 µM (inactive)	> 100 µM (inactive)		> 100 µM (inactive)	> 100 µM (inactive)	> 100 µM (inactive)	> 10 µM (inactive)
S=c1sscc1N1CCSc2ssc(=S)c21	32.7 µM (inactive)	7.45 µM (inactive)	> 100 µM (inactive)	48.1 µM (inactive)	35.9 µM (inactive)	> 100 µM (inactive)	16.6 µM (inactive)	42.3 µM (inactive)	32.1 µM (inactive)		25.8 µM (inactive)	21.8 µM (inactive)	47.3 µM (inactive)	> 100 µM (inactive)	4.66 µM (inactive)		> 100 µM (inactive)	21.1 µM (inactive)	> 100 µM (inactive)	> 100 µM (inactive)
CC(=O)Oc1c(-c2ccccc2)oc2ccccc12	2.11 µM (inactive)	3.19 µM (inactive)	3.1 µM (inactive)	1.53 µM (inactive)	2.28 µM (inactive)	0.813 µM (active)	2.06 µM (inactive)	1.36 µM (inactive)	2.96 µM (inactive)	2.12 µM (inactive)	2.19 µM (inactive)	3.96 µM (inactive)	1.42 µM (inactive)	1.89 µM (inactive)	2.88 µM (inactive)		1.09 µM (active)	2.08 µM (inactive)	1.9 µM (inactive)	1.11 µM (active)
COC(=O)C(/C(=N\O)C(=O)Nc1cccc(Cl)c1C)c1cnc2ccccc2n1 (configuration not stated)	> 100 µM (inactive)	> 100 µM (inactive)	> 100 µM (inactive)	> 100 µM (inactive)	> 100 µM (inactive)		> 100 µM (inactive)	> 100 µM (inactive)	> 100 µM (inactive)	> 100 µM (inactive)	> 100 µM (inactive)	> 100 µM (inactive)	92.9 µM (inactive)	> 100 µM (inactive)	> 100 µM (inactive)	> 100 µM (inactive)	> 100 µM (inactive)	> 100 µM (inactive)	> 100 µM (inactive)	> 100 µM (inactive)
O=c1[nH]c(=O)n(C2OC(CO)C(O)C2O)cc1OCCCc1ccccc1 (configuration not stated)	> 100 µM (inactive)	> 100 µM (inactive)	> 100 µM (inactive)	> 100 µM (inactive)	> 100 µM (inactive)		> 100 µM (inactive)	> 100 µM (inactive)	> 100 µM (inactive)	> 100 µM (inactive)	> 100 µM (inactive)	> 100 µM (inactive)	> 100 µM (inactive)	> 100 µM (inactive)	> 100 µM (inactive)	> 100 µM (inactive)	> 100 µM (inactive)	> 100 µM (inactive)	> 100 µM (inactive)	> 100 µM (inactive)
Cc1ccsc1/C=N/NC1=NCCN1	> 100 µM (inactive)	> 100 µM (inactive)	> 100 µM (inactive)	> 100 µM (inactive)	> 100 µM (inactive)	> 100 µM (inactive)	> 100 µM (inactive)		> 100 µM (inactive)	> 100 µM (inactive)	> 100 µM (inactive)	> 100 µM (inactive)	> 100 µM (inactive)	> 100 µM (inactive)	> 100 µM (inactive)	> 100 µM (inactive)	> 100 µM (inactive)	> 100 µM (inactive)	> 100 µM (inactive)	> 100 µM (inactive)
O=C1C(=C(C(F)(F)Cl)C(F)(F)Cl)C2CCC1C2 (configuration not stated)	2.49 µM (inactive)	2.84 µM (inactive)	1.82 µM (inactive)	2.07 µM (inactive)	2.41 µM (inactive)	0.849 µM (active)	> 10 µM (inactive)	3.29 µM (inactive)	> 10 µM (inactive)	2.45 µM (inactive)	1.97 µM (inactive)	7.53 µM (inactive)	1.63 µM (inactive)	0.0131 µM (active)	1.94 µM (inactive)	> 10 µM (inactive)	3.01 µM (inactive)	1.89 µM (inactive)	1.67 µM (inactive)	
O=C1CC(c2ccccc2Cl)C2(C(=O)NC(=O)NC2=O)C(c2ccccc2Cl)C1 (configuration not stated)	54.1 µM (inactive)	> 100 µM (inactive)	> 100 µM (inactive)	> 100 µM (inactive)	39.4 µM (inactive)	68.2 µM (inactive)	38.6 µM (inactive)	76.2 µM (inactive)	> 100 µM (inactive)	32.6 µM (inactive)	> 100 µM (inactive)	39.2 µM (inactive)	29.5 µM (inactive)	> 100 µM (inactive)	> 100 µM (inactive)	0.356 µM (active)	> 100 µM (inactive)	0.104 µM (active)		
CC12CC(OC(=O)[C@]1(C)O)[C@@H]([C@]1(O)CC[C@H]3[C@@H]4C[C@H]5O[C@]56[C@@H](O)C=CC(=O)[C@]6(C)[C@H]4CC[C@@]31C)C2 (some centres not stated)	3.08 µM (inactive)	11.2 µM (inactive)	3.18 µM (inactive)	12.1 µM (inactive)	5.41 µM (inactive)		2.84 µM (inactive)	2.78 µM (inactive)	13.8 µM (inactive)	2.59 µM (inactive)	6.19 µM (inactive)	22.2 µM (inactive)	3.01 µM (inactive)	2.54 µM (inactive)	3.37 µM (inactive)	34.1 µM (inactive)	14.4 µM (inactive)	17.3 µM (inactive)	3.39 µM (inactive)	9.59 µM (inactive)
CC1(C)CCCC(C)(C2CCC3(C)C2C(O)CC2C4(C)CCC(O)C(C)(C)C4CCC23C)O1 (configuration not stated)	61.1 µM (inactive)	66.2 µM (inactive)	> 100 µM (inactive)	> 100 µM (inactive)	51.1 µM (inactive)		> 100 µM (inactive)	42.9 µM (inactive)	> 100 µM (inactive)		> 100 µM (inactive)	> 100 µM (inactive)	3.72 µM (inactive)	93.1 µM (inactive)	42.4 µM (inactive)	46.2 µM (inactive)	> 100 µM (inactive)	> 100 µM (inactive)	80.2 µM (inactive)	42.7 µM (inactive)
COc1ccc(Nc2cc(O)nc(O)n2)cc1	> 100 µM (inactive)	> 100 µM (inactive)	> 100 µM (inactive)	> 100 µM (inactive)	> 100 µM (inactive)	> 100 µM (inactive)	> 100 µM (inactive)	> 100 µM (inactive)	> 100 µM (inactive)	> 100 µM (inactive)	> 100 µM (inactive)	> 100 µM (inactive)	24.7 µM (inactive)	> 100 µM (inactive)	> 100 µM (inactive)		> 100 µM (inactive)	> 100 µM (inactive)	> 100 µM (inactive)	
Oc1ccc(/C=C/c2cc(O)cc(O)c2)cc1 [RESVERATROL]	67 µM (inactive)	> 100 µM (inactive)	> 100 µM (inactive)	42.4 µM (inactive)	> 100 µM (inactive)	8.63 µM (inactive)	81.5 µM (inactive)	29.6 µM (inactive)	24.3 µM (inactive)	> 100 µM (inactive)	42.8 µM (inactive)	12.1 µM (inactive)	40.9 µM (inactive)	7.23 µM (inactive)	48.8 µM (inactive)	79.3 µM (inactive)	31.9 µM (inactive)			42.2 µM (inactive)

Source: ChEMBL document CHEMBL1201862, “PubChem BioAssay data set” (2004)
